# Values joined by “and” are separate entries in the source; they are usually repeats but may differ in a detail not shown here. Equal entries are not always repeated.
# How the values were obtained:
# [1] = Metabolic stability in rat liver microsomes (RLMs); details: rat, microsomes
# [2] = Peptide stability in simulated intestinal fluid (SIF); type: in vitro ADME, porcine; details: simulated gi fluid; 8 h, 37 °C, pH 6.8; read-out: Proteolytic stability: SIF (8 h) % remaining
# Description: (§1) Simulated gastric and intestinal fluids were prepared according to the States Pharmacopeia specifications (Test Solutions, United States Pharmacopeia 35, NF 30, 2012). SGF: 0.2 g of sodium chloride was dissolved in 50 ml of water, and the pH was adjusted to 1.2 by addition of 0.7 ml of 10 M hydrochloric acid. Then, 0.32 g of porcine pepsin (Sigma-Aldrich, P7125) was dissolved under gentle agitation, and the volume was filled up to 100 ml with Milli-Q water. SIF: 0.68 g of monobasic potassium phosphate was dissolved in 25 ml of Milli-Q water, and the pH was adjusted to 6.8 by adding 7.7 ml of a 0.2 M sodium hydroxide solution. Next, 1 g of porcine pancreatin (Sigma-Aldrich, P3292) was added under gentle agitation, and the volume was adjusted to 100 ml with Milli-Q water to afford a fine suspension. To test the stability in simulated gastrointestinal fluids, 396 μl of SGF or SIF was pre-heated at 37 °C for 10 min, and 4 μl of a 1 mM peptide solution in DMSO was added. […] Supernatant was analyzed by LC–MS to measure the peptide concentrations at the different timepoints. Residual peptide was calculated by normalizing the concentrations measured at T1 to T0.
# porcine pancreatin = test: as above; type: in vitro ADME; details: after 8 h vs 0 h (TIC); for SIF stability, Residual peptide Average: average of R1-R3; for SIF stability, Residual peptide: single replicates R1-R3
# Description: as §1
# [3] = Passive artificial membrane permeability (PAMPA); details: for PAMPA permeability: % permeability: 50 μM, 12–18 h, acceptor concentration relative to equilibrium; for Papp at 50 μM / Permeability% Average / Permeability% R1 / Permeability% R3: PAMPA; for Papp at 50 μM: pH 7.4; for Permeability% Average: average of R1-R3; for Permeability% R1: replicate R1; for Permeability% R1 / Permeability% R3: TIC of top well sample relative to sample at theoretical equilibrium; for Permeability% R3: replicate R3
# human α-thrombin = human α-thrombin (Homo sapiens, UniProt P00734); test: Protease inhibition, Ki for human α-thrombin (fluorogenic substrate Z-Gly-Gly-Arg-AMC); type: biochemical; details: replicates R1-R3
# In short: (§2)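 Inhibition was measured as AMC fluorescence from 50 μM substrate, monitored for 30 min at 25 °C, relative to a peptide-free control. Human and rat enzymes were present at 2 nM and 3 nM final, respectively, in 50 mM Tris-HCl pH 7.4, 150 mM NaCl, 10 mM MgCl2, 1 mM CaCl2. Ki derives from fitted IC50 via Cheng–Prusoff.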
# rat α-thrombin = target: T1, rat α-thrombin (Rattus norvegicus, UniProt P18292); test: Protease inhibition, Ki for rat α-thrombin (fluorogenic substrate Z-Gly-Gly-Arg-AMC); type: biochemical; details: replicates R1-R3
# T1 construct: rat α-thrombin (Molecular Innovations) were used at final concentrations of 2 nM and 3 nM; purchased Molecular Innovations
# In short: as §2
# porcine pepsin = target: T2, porcine pepsin (Sus scrofa, UniProt P00791); test: Peptide stability in simulated gastric fluid (SGF); type: in vitro ADME; details: for SGF stability, Residual peptide Average / SGF stability, Residual peptide: after 8 h vs 0 h (TIC); for SGF stability, Residual peptide Average: average of R1-R3; for SGF stability, Residual peptide: single replicates R1-R3; for remaining at 8 h: simulated gi fluid, 37 °C, pH 1.2, read-out: Proteolytic stability: SGF (8 h) % remaining
# T2 construct: 0.32 g of porcine pepsin (Sigma-Aldrich, P7125) was dissolved under gentle agitation; purchased Sigma-Aldrich P7125
# Description: as §1
# [4] = CL (ul/min/mg protein) R1, RLM CL, replicate R1
# [5] = CL (ul/min/mg protein) R2, RLM CL, replicate R2
# [6] = CL (ul/min/mg protein) R3, RLM CL, replicate R3
# [7] = Half Life (min) R2, RLM metabolic stability, replicate R2, 0-60 min
# [8] = Half Life (min) R3, RLM metabolic stability, replicate R3, 0-60 min
# [9] = Metabolic stability: Half life T1/2 (min), RLMs, mean and SD, three measurements
# [10] = Metabolic stability: RLM CL (ul/min/mg), RLMs, mean and SD, three measurements
# [11] = peptide 1.33E+02 uM, slope of proteolytic substrate cleavage over time
# T2 sequence (P00791 60-385): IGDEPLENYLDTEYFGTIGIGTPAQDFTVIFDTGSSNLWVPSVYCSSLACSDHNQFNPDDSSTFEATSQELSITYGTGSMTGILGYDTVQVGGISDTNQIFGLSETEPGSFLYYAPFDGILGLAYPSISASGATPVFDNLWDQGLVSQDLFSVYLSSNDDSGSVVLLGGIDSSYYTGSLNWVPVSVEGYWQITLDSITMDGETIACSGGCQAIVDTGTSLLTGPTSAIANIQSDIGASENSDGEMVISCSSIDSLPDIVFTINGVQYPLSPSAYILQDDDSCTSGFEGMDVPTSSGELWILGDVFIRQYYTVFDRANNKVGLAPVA
smiles,measurement,setting,value
O=C1CCSCc2cccc(n2)CSCCNC(=O)[C@H](CO)NC(=O)[C@@H](NC(=O)c2ccc(Cl)s2)CN1 [compound 17],microsomal CLint,[1]; [4],149 µL/min/mg
same,microsomal CLint,[1]; [5],98.2 µL/min/mg
same,microsomal CLint,[1]; [6],109 µL/min/mg
same,half-life,"[1]; Half Life (min) R1, RLM metabolic stability, replicate R1, 0-60 min",9.3 min
same,half-life,[1]; [7],14.1 min
same,half-life,[1]; [8],12.7 min
same,half-life,[1]; [9],12.1 ± 2 min
same,microsomal CLint,[1]; [10],119 ± 22 µL/min/mg
same,remaining at 8 h,[2],92 ± 9%
same,"SIF stability, Residual peptide Average",porcine pancreatin,91.77
same,"SIF stability, Residual peptide",porcine pancreatin,101.93 and 87.06 and 86.31
same,PAMPA permeability: % permeability,[3],0.86 ± 0.09%
same,Papp at 50 μM,[3],0.0575 ×10⁻⁶ cm/s
same,Permeability% Average,[3],0.9%
same,Permeability% R1,[3],0.87%
same,Permeability% R3,[3],0.95%
same,"Human alpha thrombin inhibition, slope normalized to DMSO",human α-thrombin; peptide 1.02E-03 uM,90.3 and 94.2 and 97.4
same,"Human alpha thrombin inhibition, slope normalized to DMSO",human α-thrombin; peptide 1.04E+00 uM,86.6 and 86.7 and 88.9
same,"Human alpha thrombin inhibition, slope normalized to DMSO",human α-thrombin; peptide 1.27E-04 uM,98.6 and 95.2 and 97.6
same,"Human alpha thrombin inhibition, slope normalized to DMSO",human α-thrombin; peptide 1.30E-01 uM,95.9 and 91.0 and 95.3
same,"Human alpha thrombin inhibition, slope normalized to DMSO",human α-thrombin; [11],25.3 and 29.1 and 30.1
same,"Human alpha thrombin inhibition, slope normalized to DMSO",human α-thrombin; peptide 1.63E-02 uM,109.1 and 94.1 and 96.6
same,"Human alpha thrombin inhibition, slope normalized to DMSO",human α-thrombin; peptide 1.67E+01 uM,56.0 and 55.9 and 56.8
same,"Human alpha thrombin inhibition, slope normalized to DMSO",human α-thrombin; peptide 2.03E-03 uM,98.0 and 93.9 and 96.6
same,"Human alpha thrombin inhibition, slope normalized to DMSO",human α-thrombin; peptide 2.08E+00 uM,93.5 and 81.6 and 87.4
same,"Human alpha thrombin inhibition, slope normalized to DMSO",human α-thrombin; peptide 2.54E-04 uM,96.9 and 93.2 and 95.5
same,"Human alpha thrombin inhibition, slope normalized to DMSO",human α-thrombin; peptide 2.60E-01 uM,93.6 and 91.3 and 95.4
same,"Human alpha thrombin inhibition, slope normalized to DMSO",human α-thrombin; peptide 3.18E-05 uM,97.0 and 94.8 and 95.7
same,"Human alpha thrombin inhibition, slope normalized to DMSO",human α-thrombin; peptide 3.26E-02 uM,97.9 and 92.8 and 96.6
same,"Human alpha thrombin inhibition, slope normalized to DMSO",human α-thrombin; peptide 3.33E+01 uM,44.0 and 43.7 and 42.6
same,"Human alpha thrombin inhibition, slope normalized to DMSO",human α-thrombin; peptide 4.07E-03 uM,98.5 and 94.3 and 98.3
same,"Human alpha thrombin inhibition, slope normalized to DMSO",human α-thrombin; peptide 4.17E+00 uM,81.7 and 78.5 and 82.6
same,"Human alpha thrombin inhibition, slope normalized to DMSO",human α-thrombin; peptide 5.09E-04 uM,98.7 and 85.0 and 98.3
same,"Human alpha thrombin inhibition, slope normalized to DMSO",human α-thrombin; peptide 5.21E-01 uM,102.0 and 91.0 and 92.1
same,"Human alpha thrombin inhibition, slope normalized to DMSO",human α-thrombin; peptide 6.36E-05 uM,94.5 and 96.0 and 100.7
same,"Human alpha thrombin inhibition, slope normalized to DMSO",human α-thrombin; peptide 6.51E-02 uM,96.7 and 92.1 and 95.5
same,"Human alpha thrombin inhibition, slope normalized to DMSO",human α-thrombin; peptide 6.67E+01 uM,31.6 and 30.0 and 31.3
same,"Human alpha thrombin inhibition, slope normalized to DMSO",human α-thrombin; peptide 8.14E-03 uM,98.1 and 93.7 and 96.2
same,"Human alpha thrombin inhibition, slope normalized to DMSO",human α-thrombin; peptide 8.33E+00 uM,74.6 and 70.2 and 71.4
same,"Rat alpha thrombin inhibition, slope normalized to DMSO",rat α-thrombin; [11],11.3 and 13.8 and 8.3
same,"Rat alpha thrombin inhibition, slope normalized to DMSO",rat α-thrombin; peptide 1.67E+01 uM,29.0 and 30.7 and 41.4
same,"Rat alpha thrombin inhibition, slope normalized to DMSO",rat α-thrombin; peptide 2.08E+00 uM,79.8 and 81.7 and 85.5
same,"Rat alpha thrombin inhibition, slope normalized to DMSO",rat α-thrombin; peptide 3.33E+01 uM,17.9 and 19.2 and 22.6
same,"Rat alpha thrombin inhibition, slope normalized to DMSO",rat α-thrombin; peptide 4.17E+00 uM,59.7 and 62.6 and 71.9
same,"Rat alpha thrombin inhibition, slope normalized to DMSO",rat α-thrombin; peptide 6.67E+01 uM,10.8 and 11.8 and 26.2
same,"Rat alpha thrombin inhibition, slope normalized to DMSO",rat α-thrombin; peptide 8.33E+00 uM,44.9 and 46.7 and 59.3
same,"SGF stability, Residual peptide Average",porcine pepsin,97.83
same,"SGF stability, Residual peptide",porcine pepsin,97.70 and 100.05 and 95.74
same,remaining at 8 h,porcine pepsin,98 ± 2%
CC(C)[C@@H]1NC(=O)[C@@H](NC(=O)c2ccc(Cl)s2)CNC(=O)CCSCc2cccc(n2)CSCCNC1=O [compound 19],microsomal CLint,[1]; [4],13.1 µL/min/mg
same,microsomal CLint,[1]; [5],42.3 µL/min/mg
same,microsomal CLint,[1]; [6],68.3 µL/min/mg
same,half-life,[1]; [7],32.8 min
same,half-life,[1]; [8],20.3 min
same,half-life,[1]; [9],53 ± 38 min
same,microsomal CLint,[1]; [10],41 ± 23 µL/min/mg
same,remaining at 8 h,[2],62 ± 15%
same,"SIF stability, Residual peptide Average",porcine pancreatin,62.00
same,"SIF stability, Residual peptide",porcine pancreatin,68.18 and 45.06 and 72.76
same,PAMPA permeability: % permeability,[3],5.7 ± 1.3%
same,Papp at 50 μM,[3],0.38 ×10⁻⁶ cm/s
same,Permeability% Average,[3],5.7%
same,Permeability% R1,[3],7.10%
same,Permeability% R3,[3],4.56%
same,"Human alpha thrombin inhibition, slope normalized to DMSO",human α-thrombin; peptide 1.02E-03 uM,98.0 and 91.0 and 96.2
same,"Human alpha thrombin inhibition, slope normalized to DMSO",human α-thrombin; peptide 1.04E+00 uM,90.3 and 89.1 and 92.4
same,"Human alpha thrombin inhibition, slope normalized to DMSO",human α-thrombin; peptide 1.27E-04 uM,96.9 and 100.1 and 95.3
same,"Human alpha thrombin inhibition, slope normalized to DMSO",human α-thrombin; peptide 1.30E-01 uM,95.8 and 125.1 and 96.3
same,"Human alpha thrombin inhibition, slope normalized to DMSO",human α-thrombin; [11],74.4 and 73.1 and 82.6
same,"Human alpha thrombin inhibition, slope normalized to DMSO",human α-thrombin; peptide 1.63E-02 uM,97.3 and 90.7 and 96.5
same,"Human alpha thrombin inhibition, slope normalized to DMSO",human α-thrombin; peptide 1.67E+01 uM,83.1 and 82.1 and 94.4
same,"Human alpha thrombin inhibition, slope normalized to DMSO",human α-thrombin; peptide 2.03E-03 uM,96.1 and 96.3 and 98.7
same,"Human alpha thrombin inhibition, slope normalized to DMSO",human α-thrombin; peptide 2.08E+00 uM,89.8 and 84.9 and 90.4
same,"Human alpha thrombin inhibition, slope normalized to DMSO",human α-thrombin; peptide 2.54E-04 uM,98.3 and 94.9 and 77.9
same,"Human alpha thrombin inhibition, slope normalized to DMSO",human α-thrombin; peptide 2.60E-01 uM,93.9 and 90.6 and 94.3
same,"Human alpha thrombin inhibition, slope normalized to DMSO",human α-thrombin; peptide 3.18E-05 uM,98.5 and 92.5 and 100.2
same,"Human alpha thrombin inhibition, slope normalized to DMSO",human α-thrombin; peptide 3.26E-02 uM,95.9 and 95.8 and 99.6
same,"Human alpha thrombin inhibition, slope normalized to DMSO",human α-thrombin; peptide 3.33E+01 uM,78.3 and 75.1 and 78.9
same,"Human alpha thrombin inhibition, slope normalized to DMSO",human α-thrombin; peptide 4.07E-03 uM,94.7 and 93.4 and 96.1
same,"Human alpha thrombin inhibition, slope normalized to DMSO",human α-thrombin; peptide 4.17E+00 uM,83.3 and 83.5 and 89.8
same,"Human alpha thrombin inhibition, slope normalized to DMSO",human α-thrombin; peptide 5.09E-04 uM,93.5 and 91.5 and 93.7
same,"Human alpha thrombin inhibition, slope normalized to DMSO",human α-thrombin; peptide 5.21E-01 uM,92.8 and 90.2 and 92.1
same,"Human alpha thrombin inhibition, slope normalized to DMSO",human α-thrombin; peptide 6.36E-05 uM,97.2 and 93.5 and 90.4
same,"Human alpha thrombin inhibition, slope normalized to DMSO",human α-thrombin; peptide 6.51E-02 uM,99.6 and 94.9 and 95.6
same,"Human alpha thrombin inhibition, slope normalized to DMSO",human α-thrombin; peptide 6.67E+01 uM,77.2 and 75.7 and 77.5
same,"Human alpha thrombin inhibition, slope normalized to DMSO",human α-thrombin; peptide 8.14E-03 uM,97.4 and 94.0 and 99.7
same,"Human alpha thrombin inhibition, slope normalized to DMSO",human α-thrombin; peptide 8.33E+00 uM,84.1 and 83.5 and 81.2
same,"Rat alpha thrombin inhibition, slope normalized to DMSO",rat α-thrombin; [11],43.4 and 70.6
same,"Rat alpha thrombin inhibition, slope normalized to DMSO",rat α-thrombin; peptide 1.67E+01 uM,56.7 and 58.6
same,"Rat alpha thrombin inhibition, slope normalized to DMSO",rat α-thrombin; peptide 2.08E+00 uM,84.9 and 85.4 and 90.4
same,"Rat alpha thrombin inhibition, slope normalized to DMSO",rat α-thrombin; peptide 3.33E+01 uM,53.0 and 50.7 and 58.4
same,"Rat alpha thrombin inhibition, slope normalized to DMSO",rat α-thrombin; peptide 4.17E+00 uM,73.8 and 75.0 and 69.4
same,"Rat alpha thrombin inhibition, slope normalized to DMSO",rat α-thrombin; peptide 6.67E+01 uM,39.7 and 48.9 and 63.6
same,"Rat alpha thrombin inhibition, slope normalized to DMSO",rat α-thrombin; peptide 8.33E+00 uM,59.4 and 61.3 and 72.8
same,"SGF stability, Residual peptide Average",porcine pepsin,94.69
same,"SGF stability, Residual peptide",porcine pepsin,92.56 and 99.47 and 92.05
same,remaining at 8 h,porcine pepsin,95 ± 4%
